According to ChEMBL document CHEMBL4219148, “Discovery of a highly potent orally bioavailable imidazo-[1, 2-a]pyrazine Aurora inhibitor” (Bioorg Med Chem Lett, 2018):

Legend:
[1] = Oral bioavailability in mouse at 50 mg/kg; format: ADME, organism-based; settings: in vivo
[2] = molecular target: Insulin-like growth factor 1 receptor (Homo sapiens, UniProt P08069); assay: Inhibition of IGF1R (unknown origin)
[3] = Protein binding in mouse plasma; format: ADME, cell-free; settings: read-out: PPB (converted)
[4] = Half life in dog at 1 mg/kg, iv; format: ADME, organism-based, Canis lupus familiaris; settings: in vivo
[5] = molecular target: Ribosomal protein S6 kinase alpha-3 (Homo sapiens, UniProt P51812); assay: Inhibition of RSK2 (unknown origin)
Cytochrome P450 2C9 = Cytochrome P450 2C9 (Homo sapiens, UniProt P11712); assay: Inhibition of CYP2C9 in human liver microsomes; format: ADME
Cytochrome P450 2C19 = Cytochrome P450 2C19 (Homo sapiens, UniProt P33261); assay: Inhibition of CYP2C19 in human liver microsomes; format: ADME
Aurora kinase B [6] = molecular target: T1, Aurora kinase B (Homo sapiens, UniProt Q96GD4); assay: Inhibition of Aurora B in human HCT116 cells assessed as reduction in phosphorylation of Histone H3 at Ser10 residue incubated for 1 hr by Hoechst 33342 dye-based immunofluorescence microscopic method; format: cell-based
[7] = molecular target: Serine/threonine-protein kinase PLK3 (Homo sapiens, UniProt Q9H4B4); assay: Inhibition of PLK3 (unknown origin)
Aurora kinase B [8] = molecular target: T1, Aurora kinase B; assay: Binding affinity to Aurora B (unknown origin) after 45 mins by fluorescence-based thermal stability shift assay
Cytochrome P450 3A4 = Cytochrome P450 3A4 (Homo sapiens, UniProt P08684); assay: Inhibition of CYP3A4 in human liver microsomes; format: ADME
[9] = Clearance in monkey at 1 mg/kg, iv; format: ADME, organism-based, Macaca mulatta; settings: rhesus monkey, in vivo
[10] = AUC (0 to 48 hrs) in dog at 1 mg/kg, iv; format: ADME, organism-based, Canis lupus familiaris; set-up: dose 1 mg/kg, time < 48 hr, route intravenous; settings: in vivo
[11] = Volume of distribution in monkey at 1 mg/kg, iv; format: ADME, organism-based, Macaca mulatta; settings: rhesus monkey, in vivo
[12] = Clearance in mouse at 3 mg/kg, iv; format: ADME, organism-based; settings: in vivo
[13] = AUC (0 to 48 hrs) in dog at 3 mg/kg, po; format: ADME, organism-based, Canis lupus familiaris; set-up: dose 3 mg/kg, time < 48 hr, route oral; settings: in vivo
[14] = Protein binding in rat plasma; format: ADME, cell-free; settings: read-out: PPB (converted)
[15] = Clearance in rat at 1 mg/kg, iv; format: ADME, organism-based; settings: in vivo
[16] = Half life in rat at 1 mg/kg, iv; format: ADME, organism-based; settings: in vivo
[17] = molecular target: Testis-specific serine/threonine-protein kinase 2 (Homo sapiens, UniProt Q96PF2); assay: Inhibition of TSSK2 (unknown origin)
[18] = AUC (0 to 48 hrs) in monkey at 1 mg/kg, iv; format: ADME, organism-based, Macaca mulatta; set-up: time < 48 hr, dose 1 mg/kg, route intravenous; settings: rhesus monkey, in vivo
Aurora kinase A = molecular target: T2, Aurora kinase A (Homo sapiens, UniProt O14965); assay: Binding affinity to Aurora A (unknown origin) after 45 mins by fluorescence-based thermal stability shift assay
T2 sequence (O14965 whole entry): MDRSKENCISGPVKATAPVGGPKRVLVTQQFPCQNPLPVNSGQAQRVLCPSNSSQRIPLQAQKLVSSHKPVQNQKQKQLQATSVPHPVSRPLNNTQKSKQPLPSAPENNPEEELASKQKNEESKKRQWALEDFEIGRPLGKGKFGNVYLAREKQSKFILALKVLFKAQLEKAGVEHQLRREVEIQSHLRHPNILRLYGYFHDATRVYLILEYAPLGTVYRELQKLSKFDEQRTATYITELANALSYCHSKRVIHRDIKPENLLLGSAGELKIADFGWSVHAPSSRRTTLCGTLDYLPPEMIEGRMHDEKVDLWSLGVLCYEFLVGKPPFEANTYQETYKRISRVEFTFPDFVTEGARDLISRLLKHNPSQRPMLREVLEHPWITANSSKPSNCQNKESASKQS

[19] = molecular target: T3, Inhibitor of nuclear factor kappa-B kinase subunit beta (Homo sapiens, UniProt O14920); assay: Inhibition of IKKB (unknown origin)
T3 sequence (O14920 whole entry): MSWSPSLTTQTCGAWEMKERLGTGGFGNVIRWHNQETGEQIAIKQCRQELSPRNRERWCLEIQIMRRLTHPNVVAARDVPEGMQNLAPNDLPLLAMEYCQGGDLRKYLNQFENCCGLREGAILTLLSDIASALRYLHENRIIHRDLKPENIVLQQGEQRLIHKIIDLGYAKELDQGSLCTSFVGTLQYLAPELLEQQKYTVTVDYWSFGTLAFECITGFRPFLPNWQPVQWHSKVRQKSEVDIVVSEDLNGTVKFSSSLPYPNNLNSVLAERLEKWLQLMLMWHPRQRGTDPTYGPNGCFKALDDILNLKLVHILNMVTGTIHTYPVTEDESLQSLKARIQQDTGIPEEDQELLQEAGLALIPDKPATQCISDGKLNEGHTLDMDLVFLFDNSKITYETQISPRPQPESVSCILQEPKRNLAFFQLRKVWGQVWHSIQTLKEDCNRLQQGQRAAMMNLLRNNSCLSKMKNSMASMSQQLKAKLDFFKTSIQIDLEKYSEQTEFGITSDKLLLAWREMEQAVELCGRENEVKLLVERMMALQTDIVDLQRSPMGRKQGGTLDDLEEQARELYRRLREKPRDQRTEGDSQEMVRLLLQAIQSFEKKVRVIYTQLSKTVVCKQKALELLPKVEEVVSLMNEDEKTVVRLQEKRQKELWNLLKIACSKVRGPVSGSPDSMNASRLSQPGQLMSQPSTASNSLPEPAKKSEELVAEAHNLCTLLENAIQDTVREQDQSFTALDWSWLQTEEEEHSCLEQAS

[20] = Oral bioavailability in dog at 3 mg/kg; format: ADME, organism-based, Canis lupus familiaris; settings: in vivo
[21] = Volume of distribution in dog at 1 mg/kg, iv; format: ADME, organism-based, Canis lupus familiaris; settings: in vivo
[22] = Volume of distribution in mouse at 3 mg/kg, iv; format: ADME, organism-based; settings: in vivo
[23] = molecular target: Rho-associated protein kinase 2 (Homo sapiens, UniProt O75116); assay: Inhibition of ROCK2 (unknown origin)
[24] = Protein binding in human plasma; format: ADME, cell-free; settings: read-out: PPB (converted)
[25] = AUC (0 to 24 hrs) in mouse at 3 mg/kg, iv; format: ADME, organism-based; set-up: time < 24 hr, dose 3 mg/kg, route intravenous; settings: in vivo
[26] = molecular target: Serine/threonine-protein kinase Nek2 (Homo sapiens, UniProt P51955); assay: Inhibition of NEK2 (unknown origin)
Cytochrome P450 2D6 = Cytochrome P450 2D6 (Homo sapiens, UniProt P10635); assay: Inhibition of CYP2D6 in human liver microsomes; format: ADME
[27] = AUC (0 to 24 hrs) in mouse at 50 mg/kg, po; format: ADME, organism-based; set-up: time < 24 hr, dose 50 mg/kg, route oral; settings: in vivo
[28] = Half life in monkey at 1 mg/kg, iv; format: ADME, organism-based, Macaca mulatta; settings: rhesus monkey, in vivo
[29] = Clearance in dog at 1 mg/kg, iv; format: ADME, organism-based, Canis lupus familiaris; settings: in vivo
[30] = Half life in mouse at 3 mg/kg, iv; format: ADME, organism-based; settings: in vivo
A2780 = assay: Antitumor activity against human A2780 cells xenografted in nu/nu mouse assessed as tumor growth inhibition at 10 mg/kg, po bid for 3 days; format: functional; settings: 72 h, read-out: TGI
[31] = Intrinsic clearance in cryopreserved human hepatocytes assessed per million cells; format: ADME, cell-based, Hepatocyte; settings: read-out: CLH
Mus musculus = assay: Toxicity in nu/nu mouse xenografted with human A2780 cells assessed as death at 10 to 25 mg/kg, po after 3 days; format: organism-based; settings: in vivo, 72 h
Rattus norvegicus = assay: AUC (0 to 24 hrs) in rat at 30 mg/kg, po; format: ADME, organism-based; set-up: time < 24 hr, dose 30 mg/kg, route oral; settings: in vivo, 24 h

Chain of Serine/threonine-protein kinase PLK3 (Q9H4B4 whole entry): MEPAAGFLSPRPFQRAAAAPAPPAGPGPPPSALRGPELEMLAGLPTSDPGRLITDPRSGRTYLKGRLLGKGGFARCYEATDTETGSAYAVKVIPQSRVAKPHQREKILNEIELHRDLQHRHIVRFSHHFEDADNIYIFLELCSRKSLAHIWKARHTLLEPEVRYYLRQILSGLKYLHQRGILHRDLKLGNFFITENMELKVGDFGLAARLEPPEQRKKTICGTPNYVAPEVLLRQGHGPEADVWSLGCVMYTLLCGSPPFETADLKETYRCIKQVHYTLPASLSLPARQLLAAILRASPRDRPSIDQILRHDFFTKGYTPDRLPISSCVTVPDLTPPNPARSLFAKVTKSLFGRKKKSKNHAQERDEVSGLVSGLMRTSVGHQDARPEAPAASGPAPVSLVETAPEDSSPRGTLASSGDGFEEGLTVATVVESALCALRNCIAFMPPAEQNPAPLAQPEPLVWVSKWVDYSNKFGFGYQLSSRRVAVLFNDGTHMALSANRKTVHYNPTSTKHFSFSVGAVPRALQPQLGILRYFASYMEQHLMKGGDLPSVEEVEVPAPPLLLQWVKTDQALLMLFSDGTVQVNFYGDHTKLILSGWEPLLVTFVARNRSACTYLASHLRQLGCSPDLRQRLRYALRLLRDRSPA
Chain of Insulin-like growth factor 1 receptor (P08069 31-736 limits assumed): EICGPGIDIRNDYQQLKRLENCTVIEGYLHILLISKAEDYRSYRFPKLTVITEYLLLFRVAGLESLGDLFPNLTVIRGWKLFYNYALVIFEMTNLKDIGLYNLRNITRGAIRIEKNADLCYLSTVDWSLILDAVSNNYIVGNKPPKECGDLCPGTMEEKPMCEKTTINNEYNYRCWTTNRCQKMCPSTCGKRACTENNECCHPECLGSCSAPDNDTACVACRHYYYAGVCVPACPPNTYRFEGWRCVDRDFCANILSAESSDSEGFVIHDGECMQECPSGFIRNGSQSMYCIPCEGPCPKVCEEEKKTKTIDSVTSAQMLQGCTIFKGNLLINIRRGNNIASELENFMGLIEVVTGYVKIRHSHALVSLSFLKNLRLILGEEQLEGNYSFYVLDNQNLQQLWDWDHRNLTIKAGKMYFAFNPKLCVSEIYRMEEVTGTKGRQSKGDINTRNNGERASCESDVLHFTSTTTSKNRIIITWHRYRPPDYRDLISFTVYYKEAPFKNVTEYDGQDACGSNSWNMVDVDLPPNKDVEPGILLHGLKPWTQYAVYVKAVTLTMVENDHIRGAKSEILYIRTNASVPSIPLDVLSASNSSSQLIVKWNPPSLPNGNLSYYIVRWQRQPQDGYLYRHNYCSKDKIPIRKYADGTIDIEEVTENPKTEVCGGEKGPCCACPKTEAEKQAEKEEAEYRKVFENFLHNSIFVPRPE
Chain of Insulin-like growth factor 1 receptor (P08069 741-1367 limits assumed): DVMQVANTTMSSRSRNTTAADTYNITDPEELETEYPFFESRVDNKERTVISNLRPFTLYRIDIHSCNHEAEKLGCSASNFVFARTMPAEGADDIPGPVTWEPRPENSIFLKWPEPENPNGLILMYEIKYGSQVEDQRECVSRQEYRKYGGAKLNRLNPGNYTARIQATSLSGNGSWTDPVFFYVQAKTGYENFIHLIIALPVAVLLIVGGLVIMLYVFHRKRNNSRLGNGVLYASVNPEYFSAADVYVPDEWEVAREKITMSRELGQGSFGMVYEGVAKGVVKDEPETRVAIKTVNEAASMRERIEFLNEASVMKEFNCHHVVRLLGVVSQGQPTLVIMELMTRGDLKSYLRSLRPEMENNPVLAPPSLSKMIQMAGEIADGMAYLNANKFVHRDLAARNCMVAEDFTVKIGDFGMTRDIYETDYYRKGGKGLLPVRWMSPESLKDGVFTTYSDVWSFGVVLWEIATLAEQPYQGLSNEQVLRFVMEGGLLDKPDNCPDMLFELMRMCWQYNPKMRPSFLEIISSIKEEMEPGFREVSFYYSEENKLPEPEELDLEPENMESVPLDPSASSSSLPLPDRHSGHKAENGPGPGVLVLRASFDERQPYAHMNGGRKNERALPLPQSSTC
T1 sequence (Q96GD4 whole entry): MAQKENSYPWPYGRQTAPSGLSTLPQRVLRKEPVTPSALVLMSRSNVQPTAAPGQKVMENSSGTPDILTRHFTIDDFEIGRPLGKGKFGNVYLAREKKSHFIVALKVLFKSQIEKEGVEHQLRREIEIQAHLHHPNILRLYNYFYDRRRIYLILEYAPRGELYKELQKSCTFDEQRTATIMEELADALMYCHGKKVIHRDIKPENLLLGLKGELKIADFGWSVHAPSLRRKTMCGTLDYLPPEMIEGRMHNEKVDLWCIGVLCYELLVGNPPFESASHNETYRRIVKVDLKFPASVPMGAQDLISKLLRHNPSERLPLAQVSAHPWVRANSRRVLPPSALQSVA
Chain of Rho-associated protein kinase 2 (O75116 whole entry): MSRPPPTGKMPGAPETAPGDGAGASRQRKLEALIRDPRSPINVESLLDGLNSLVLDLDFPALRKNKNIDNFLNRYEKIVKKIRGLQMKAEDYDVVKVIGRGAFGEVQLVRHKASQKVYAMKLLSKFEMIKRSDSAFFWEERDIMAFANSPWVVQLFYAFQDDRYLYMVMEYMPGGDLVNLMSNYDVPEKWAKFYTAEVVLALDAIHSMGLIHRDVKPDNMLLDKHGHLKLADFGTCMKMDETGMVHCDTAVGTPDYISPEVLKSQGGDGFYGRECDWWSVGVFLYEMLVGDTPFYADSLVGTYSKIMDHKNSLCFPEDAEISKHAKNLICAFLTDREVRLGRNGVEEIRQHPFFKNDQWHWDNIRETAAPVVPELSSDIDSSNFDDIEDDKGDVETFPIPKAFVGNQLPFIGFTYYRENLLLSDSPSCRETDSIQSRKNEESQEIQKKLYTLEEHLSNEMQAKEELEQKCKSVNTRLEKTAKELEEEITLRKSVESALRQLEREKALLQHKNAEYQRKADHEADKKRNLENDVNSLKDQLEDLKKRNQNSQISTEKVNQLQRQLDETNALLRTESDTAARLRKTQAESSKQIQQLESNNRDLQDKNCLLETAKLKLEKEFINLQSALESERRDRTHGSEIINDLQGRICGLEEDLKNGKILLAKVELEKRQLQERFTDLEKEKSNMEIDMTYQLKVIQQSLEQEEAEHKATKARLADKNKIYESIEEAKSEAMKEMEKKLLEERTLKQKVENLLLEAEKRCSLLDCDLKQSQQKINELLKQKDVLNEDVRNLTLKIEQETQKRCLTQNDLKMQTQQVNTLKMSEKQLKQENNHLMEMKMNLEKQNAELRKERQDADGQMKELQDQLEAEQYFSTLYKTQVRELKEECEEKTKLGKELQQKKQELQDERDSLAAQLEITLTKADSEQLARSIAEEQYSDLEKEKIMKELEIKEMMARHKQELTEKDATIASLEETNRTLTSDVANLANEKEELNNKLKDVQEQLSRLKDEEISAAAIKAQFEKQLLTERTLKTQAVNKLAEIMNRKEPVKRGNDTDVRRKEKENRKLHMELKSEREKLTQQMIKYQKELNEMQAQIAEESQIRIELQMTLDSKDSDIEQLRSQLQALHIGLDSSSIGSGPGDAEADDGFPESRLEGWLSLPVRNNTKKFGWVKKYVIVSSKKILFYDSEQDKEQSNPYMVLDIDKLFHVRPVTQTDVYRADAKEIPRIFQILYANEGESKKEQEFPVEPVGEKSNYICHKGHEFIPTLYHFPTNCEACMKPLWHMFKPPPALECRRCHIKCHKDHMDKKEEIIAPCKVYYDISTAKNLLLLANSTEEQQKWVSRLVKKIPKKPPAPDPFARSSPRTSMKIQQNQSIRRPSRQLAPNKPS
Chain of Ribosomal protein S6 kinase alpha-3 (P51812 whole entry): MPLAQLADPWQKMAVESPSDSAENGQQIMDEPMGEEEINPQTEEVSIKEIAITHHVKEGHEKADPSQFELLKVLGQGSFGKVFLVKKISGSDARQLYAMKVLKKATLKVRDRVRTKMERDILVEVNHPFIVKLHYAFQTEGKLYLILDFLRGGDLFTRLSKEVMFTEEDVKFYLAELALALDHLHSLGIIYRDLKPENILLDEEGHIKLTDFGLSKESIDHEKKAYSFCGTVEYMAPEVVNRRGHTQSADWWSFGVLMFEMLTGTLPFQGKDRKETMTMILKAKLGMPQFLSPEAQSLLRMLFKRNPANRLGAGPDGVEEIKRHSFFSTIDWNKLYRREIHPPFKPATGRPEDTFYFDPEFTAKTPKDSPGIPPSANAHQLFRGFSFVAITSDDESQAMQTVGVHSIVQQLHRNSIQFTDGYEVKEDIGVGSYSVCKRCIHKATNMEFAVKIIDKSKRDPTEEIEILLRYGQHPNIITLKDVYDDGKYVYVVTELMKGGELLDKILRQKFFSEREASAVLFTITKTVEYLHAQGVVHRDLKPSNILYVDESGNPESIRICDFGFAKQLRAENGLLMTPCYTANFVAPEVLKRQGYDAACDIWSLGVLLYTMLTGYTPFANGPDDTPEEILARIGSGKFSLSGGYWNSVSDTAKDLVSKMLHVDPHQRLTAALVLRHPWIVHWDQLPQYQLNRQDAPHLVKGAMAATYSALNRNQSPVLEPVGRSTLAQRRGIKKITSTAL
Chain of Cytochrome P450 2C9 (P11712 whole entry): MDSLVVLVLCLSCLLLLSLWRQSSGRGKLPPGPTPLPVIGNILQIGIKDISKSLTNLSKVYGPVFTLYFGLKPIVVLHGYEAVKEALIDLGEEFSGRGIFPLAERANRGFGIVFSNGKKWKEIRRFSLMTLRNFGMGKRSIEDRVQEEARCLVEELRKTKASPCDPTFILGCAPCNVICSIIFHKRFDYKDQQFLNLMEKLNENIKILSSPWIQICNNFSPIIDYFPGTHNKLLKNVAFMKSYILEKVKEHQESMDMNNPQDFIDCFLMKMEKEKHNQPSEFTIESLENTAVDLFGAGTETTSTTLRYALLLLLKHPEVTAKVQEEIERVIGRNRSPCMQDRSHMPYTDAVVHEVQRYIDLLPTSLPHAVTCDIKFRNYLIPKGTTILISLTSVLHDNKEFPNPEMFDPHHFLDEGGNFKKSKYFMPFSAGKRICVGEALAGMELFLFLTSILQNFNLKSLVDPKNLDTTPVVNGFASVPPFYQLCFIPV

Row | Compound | bioavailability [1] | IC50 [2] | fraction unbound [3] | half-life [4] | IC50 [5] | IC50 (Cytochrome P450 2C9) | EC50 (Aurora kinase B [6]) | IC50 [7] | Kd (Aurora kinase B [8]) | IC50 (Cytochrome P450 3A4) | clearance [9] | AUC(0-t) at 48 h [10] | Vd [11] | clearance [12] | AUC(0-t) at 48 h [13] | fraction unbound [14] | IC50 [17] | AUC(0-t) at 48 h [18] | IC50 [19] | IC50 [23] | also measured
1 | Cc1cn2c(-c3cn[nH]c3)cnc2c(Nc2cc(Cc3ccccn3)ns2)n1 | 77% | > 500 nM | 0.028 | 48 min | 260 nM | > 20000 nM | 117 nM | > 500 nM | 0.1 nM | > 20000 nM | 28 mL/min/kg | 9.2 µM·h | 1 L/kg | 118 mL/min/kg | 4.1 µM·h | 0.004 | > 500 nM | 1.7 µM·h | > 500 nM | > 500 nM | IC50 (Cytochrome P450 2C19): > 20000 nM; clearance [15]: 15 mL/min/kg; half-life [16]: 42 min; Kd (Aurora kinase A): 0.01 nM; bioavailability [20]: 15%; Vd [21]: 0.2 L/kg; Vd [22]: 1.6 L/kg; fraction unbound [24]: 0.009; AUC(0-t) at 24 h [25]: 1.1 µM·h; IC50 [26]: > 500 nM; IC50 (Cytochrome P450 2D6): > 20000 nM; AUC(0-t) at 24 h [27]: 14.1 µM·h; half-life [28]: 30 min; clearance [29]: 5 mL/min/kg; half-life [30]: 12 min
2 | CCN(CCO)Cc1cc(Nc2nc(C)cn3c(-c4cn[nH]c4)cnc23)sn1 |  | > 500 nM |  |  | 180 nM |  | 24 nM | > 500 nM |  |  |  |  |  |  |  |  | > 500 nM |  | > 500 nM | > 500 nM | IC50 [26]: > 500 nM
3 | Cc1cn2c(-c3cn[nH]c3)cnc2c(Nc2cc(C(NC(C)(C)C)c3ccccn3)ns2)n1 (single isomer, unassigned; (+)) | 64% | > 1000 nM | 0.028 | 276 min |  | 6000 nM | < 16 nM | > 1000 nM | 0.01 nM | > 20000 nM | 7.4 mL/min/kg | 3.9 µM·h | 1.3 L/kg | 50 mL/min/kg | 10.1 µM·h | 0.01 |  | 5 µM·h | > 1000 nM | > 1000 nM | inhibition in vivo at 10 mg/kg (A2780): 79%; hepatocyte CLint [31]: 11.8 µL/min/1e6 cells; Kd (Aurora kinase A): 0.01 nM; bioavailability [20]: 86%; Vd [21]: 3.7 L/kg; Vd [22]: 5.3 L/kg; fraction unbound [24]: 0.012; AUC(0-t) at 24 h [25]: 2.2 µM·h; IC50 (Cytochrome P450 2D6): 11500 nM; AUC(0-t) at 24 h [27]: 23.5 µM·h; Activity (Mus musculus): Toxic; half-life [28]: 132 min; clearance [29]: 9.4 mL/min/kg; AUC (Rattus norvegicus): 41 µM·h; half-life [30]: 108 min
